Reference: ChEMBL document CHEMBL1147144, “Novel styrylpyridines as probes for SPECT imaging of amyloid plaques” (J Med Chem, 2007)
Blank lines part the entries; values can stand above or below the compound they belong to.

Columns and labels:
[1] = target: Amyloid-beta precursor protein (Homo sapiens, UniProt P05067); test: Displacement of […] from Abeta peptide plaques in Alzheimer's disease patient brain
Spleen [2] = test: Biodistribution in ICR mouse spleen at 5 to 10 uCi, iv after 1 hr; type: ADME, organism-based; settings: in vivo
Kidney [3] = test: Biodistribution in ICR mouse kidney at 5 to 10 uCi, iv after 1 hr; type: ADME, organism-based; settings: in vivo
Muscle tissue [4] = test: Biodistribution in ICR mouse muscle at 5 to 10 uCi, iv after 2 mins; type: ADME, organism-based; settings: in vivo
Brain [5] = test: Biodistribution in ICR mouse brain at 5 to 10 uCi, iv after 30 mins; type: ADME, organism-based; settings: in vivo, 0.5 h
Liver [6] = test: Biodistribution in ICR mouse liver at 5 to 10 uCi, iv after 1 hr; type: ADME, organism-based; settings: in vivo
[7] = Partition coefficient, log P at pH 7.4; type: physicochemical; settings: octanol/water
Brain [8] = test: Ratio of drug distribution in brain after 2 mins to 30 mins in ICR mouse at 5 to 10 uCi, iv; type: ADME, organism-based; settings: in vivo
Lung [9] = test: Biodistribution in ICR mouse lung at 5 to 10 uCi, iv after 1 hr; type: ADME, organism-based; settings: in vivo
Thyroid gland [10] = test: Biodistribution in ICR mouse thyroid at 5 to 10 uCi, iv after 2 hrs; type: ADME, organism-based; settings: in vivo
Kidney [11] = test: Biodistribution in ICR mouse kidney at 5 to 10 uCi, iv after 30 mins; type: ADME, organism-based; settings: in vivo, 0.5 h
Thyroid gland [12] = test: Biodistribution in ICR mouse thyroid at 5 to 10 uCi, iv after 30 mins; type: ADME, organism-based; settings: in vivo, 0.5 h
Spleen [13] = test: Biodistribution in ICR mouse spleen at 5 to 10 uCi, iv after 2 mins; type: ADME, organism-based; settings: in vivo
Kidney [14] = test: Biodistribution in ICR mouse kidney at 5 to 10 uCi, iv after 2 hrs; type: ADME, organism-based; settings: in vivo
Brain [15] = test: Biodistribution in ICR mouse brain at 5 to 10 uCi, iv after 2 hrs; type: ADME, organism-based; settings: in vivo
Brain [16] = test: Biodistribution in ICR mouse brain at 5 to 10 uCi, iv after 1 hr; type: ADME, organism-based; settings: in vivo
Blood [17] = test: Biodistribution in ICR mouse blood at 5 to 10 uCi, iv after 2 hrs; type: ADME, organism-based; settings: in vivo
Heart [18] = test: Biodistribution in ICR mouse heart at 5 to 10 uCi, iv after 2 mins; type: ADME, organism-based; settings: in vivo
Brain [19] = test: Biodistribution in ICR mouse brain at 5 to 10 uCi, iv after 2 mins; type: ADME, organism-based; settings: in vivo
Zone of skin [20] = test: Biodistribution in ICR mouse skin at 5 to 10 uCi, iv after 2 hrs; type: ADME, organism-based; settings: in vivo
Lung [21] = test: Biodistribution in ICR mouse lung at 5 to 10 uCi, iv after 2 hrs; type: ADME, organism-based; settings: in vivo
Blood [22] = test: Biodistribution in ICR mouse blood at 5 to 10 uCi, iv after 1 hr; type: ADME, organism-based; settings: in vivo
Heart [23] = test: Biodistribution in ICR mouse heart at 5 to 10 uCi, iv after 30 mins; type: ADME, organism-based; settings: in vivo, 0.5 h
Lung [24] = test: Biodistribution in ICR mouse lung at 5 to 10 uCi, iv after 30 mins; type: ADME, organism-based; settings: in vivo, 0.5 h
Spleen [25] = test: Biodistribution in ICR mouse spleen at 5 to 10 uCi, iv after 30 mins; type: ADME, organism-based; settings: in vivo, 0.5 h
Spleen [26] = test: Biodistribution in ICR mouse spleen at 5 to 10 uCi, iv after 2 hrs; type: ADME, organism-based; settings: in vivo
Blood [27] = test: Biodistribution in ICR mouse blood at 5 to 10 uCi, iv after 30 mins; type: ADME, organism-based; settings: in vivo, 0.5 h
Blood [28] = test: Biodistribution in ICR mouse blood at 5 to 10 uCi, iv after 2 mins; type: ADME, organism-based; settings: in vivo
Muscle tissue [29] = test: Biodistribution in ICR mouse muscle at 5 to 10 uCi, iv after 1 hr; type: ADME, organism-based; settings: in vivo
Zone of skin [30] = test: Biodistribution in ICR mouse skin at 5 to 10 uCi, iv after 30 mins; type: ADME, organism-based; settings: in vivo, 0.5 h
Lung [31] = test: Biodistribution in ICR mouse lung at 5 to 10 uCi, iv after 2 mins; type: ADME, organism-based; settings: in vivo
Liver [32] = test: Biodistribution in ICR mouse liver at 5 to 10 uCi, iv after 2 hrs; type: ADME, organism-based; settings: in vivo
Muscle tissue [33] = test: Biodistribution in ICR mouse muscle at 5 to 10 uCi, iv after 2 hrs; type: ADME, organism-based; settings: in vivo
Thyroid gland [34] = test: Biodistribution in ICR mouse thyroid at 5 to 10 uCi, iv after 1 hr; type: ADME, organism-based; settings: in vivo
Thyroid gland [35] = test: Biodistribution in ICR mouse thyroid at 5 to 10 uCi, iv after 2 mins; type: ADME, organism-based; settings: in vivo
Liver [36] = test: Biodistribution in ICR mouse liver at 5 to 10 uCi, iv after 2 mins; type: ADME, organism-based; settings: in vivo
Heart [37] = test: Biodistribution in ICR mouse heart at 5 to 10 uCi, iv after 1 hr; type: ADME, organism-based; settings: in vivo
Kidney [38] = test: Biodistribution in ICR mouse kidney at 5 to 10 uCi, iv after 2 mins; type: ADME, organism-based; settings: in vivo
Liver [39] = test: Biodistribution in ICR mouse liver at 5 to 10 uCi, iv after 30 mins; type: ADME, organism-based; settings: in vivo, 0.5 h
Heart [40] = test: Biodistribution in ICR mouse heart at 5 to 10 uCi, iv after 2 hrs; type: ADME, organism-based; settings: in vivo
Muscle tissue [41] = test: Biodistribution in ICR mouse muscle at 5 to 10 uCi, iv after 30 mins; type: ADME, organism-based; settings: in vivo, 0.5 h
Zone of skin [42] = test: Biodistribution in ICR mouse skin at 5 to 10 uCi, iv after 2 mins; type: ADME, organism-based; settings: in vivo
Zone of skin [43] = test: Biodistribution in ICR mouse skin at 5 to 10 uCi, iv after 1 hr; type: ADME, organism-based; settings: in vivo

Amyloid-beta precursor protein, sequence (P05067 whole entry): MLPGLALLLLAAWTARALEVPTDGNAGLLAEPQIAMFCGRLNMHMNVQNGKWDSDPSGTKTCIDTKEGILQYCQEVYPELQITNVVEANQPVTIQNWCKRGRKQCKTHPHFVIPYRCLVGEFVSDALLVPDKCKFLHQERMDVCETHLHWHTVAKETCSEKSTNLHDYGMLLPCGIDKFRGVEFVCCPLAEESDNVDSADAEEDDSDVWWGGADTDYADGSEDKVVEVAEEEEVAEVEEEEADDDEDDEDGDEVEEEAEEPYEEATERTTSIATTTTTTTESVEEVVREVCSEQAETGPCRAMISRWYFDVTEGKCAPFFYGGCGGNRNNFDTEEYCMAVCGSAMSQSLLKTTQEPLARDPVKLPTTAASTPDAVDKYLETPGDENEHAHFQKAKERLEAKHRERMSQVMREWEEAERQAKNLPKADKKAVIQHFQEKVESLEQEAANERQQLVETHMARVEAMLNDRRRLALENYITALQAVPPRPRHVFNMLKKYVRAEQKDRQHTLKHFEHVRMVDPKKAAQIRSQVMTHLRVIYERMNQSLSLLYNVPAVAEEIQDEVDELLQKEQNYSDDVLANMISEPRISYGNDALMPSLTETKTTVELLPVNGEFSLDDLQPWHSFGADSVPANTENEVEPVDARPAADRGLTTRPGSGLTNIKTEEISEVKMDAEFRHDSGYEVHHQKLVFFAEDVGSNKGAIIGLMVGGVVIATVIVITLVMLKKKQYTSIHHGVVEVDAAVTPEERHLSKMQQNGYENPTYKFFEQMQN

Ki [1]: 4.5 nM
SMILES: CNc1ccc(/C=C/c2cnc(OCCOCCOCCF)c(Br)c2)cc1

Ki [1]: 15.5 nM
SMILES: OCCOc1ncc(/C=C/c2ccc(O)cc2)cc1I

Drug uptake (Spleen [2]): 1.32 % ID/g
Drug uptake (Kidney [3]): 2.49 % ID/g
Drug uptake (Muscle tissue [4]): 0.71 % ID/g
Drug uptake (Brain [5]): 3.56 % ID/g
Drug uptake (Liver [6]): 6.22 % ID/g
logD [7]: 2.2
Ratio (Brain [8]): 1.52
Drug uptake (Lung [9]): 1.98 % ID/g
Drug uptake (Thyroid gland [10]): 24.8 % ID/g
Drug uptake (Kidney [11]): 4.19 % ID/g
Drug uptake (Thyroid gland [12]): 11.2 % ID/g
Drug uptake (Spleen [13]): 4.4 % ID/g
Drug uptake (Kidney [14]): 1.48 % ID/g
Drug uptake (Brain [15]): 0.46 % ID/g
Drug uptake (Brain [16]): 1.32 % ID/g
Drug uptake (Blood [17]): 1.01 % ID/g
Drug uptake (Heart [18]): 10.2 % ID/g
Drug uptake (Brain [19]): 5.43 % ID/g
Drug uptake (Zone of skin [20]): 0.4 % ID/g
Drug uptake (Lung [21]): 1 % ID/g
Drug uptake (Blood [22]): 2.18 % ID/g
Drug uptake (Heart [23]): 1.93 % ID/g
Drug uptake (Lung [24]): 3.02 % ID/g
Drug uptake (Spleen [25]): 1.94 % ID/g
Drug uptake (Spleen [26]): 0.8 % ID/g
Drug uptake (Blood [27]): 2.24 % ID/g
Drug uptake (Blood [28]): 2.71 % ID/g
Drug uptake (Muscle tissue [29]): 0.55 % ID/g
Drug uptake (Zone of skin [30]): 1.18 % ID/g
Drug uptake (Lung [31]): 9.41 % ID/g
Drug uptake (Liver [32]): 4.87 % ID/g
Drug uptake (Muscle tissue [33]): 0.22 % ID/g
Drug uptake (Thyroid gland [34]): 59.1 % ID/g
Drug uptake (Thyroid gland [35]): 4.15 % ID/g
Drug uptake (Liver [36]): 19.1 % ID/g
Drug uptake (Heart [37]): 1.12 % ID/g
Drug uptake (Kidney [38]): 14.3 % ID/g
Drug uptake (Liver [39]): 12.4 % ID/g
Drug uptake (Heart [40]): 0.62 % ID/g
Drug uptake (Muscle tissue [41]): 1.05 % ID/g
Drug uptake (Zone of skin [42]): 0.46 % ID/g
Drug uptake (Zone of skin [43]): 1.16 % ID/g
SMILES: CN(C)c1ccc(/C=C/c2cnc(OCCO)c([125I])c2)cc1

Drug uptake (Spleen [2]): 1.75 % ID/g
Drug uptake (Kidney [3]): 2.81 % ID/g
Drug uptake (Muscle tissue [4]): 1.04 % ID/g
Drug uptake (Brain [5]): 1.23 % ID/g
Drug uptake (Liver [6]): 7.7 % ID/g
logD [7]: 2.2
Ratio (Brain [8]): 5.05
Drug uptake (Lung [9]): 2.37 % ID/g
Drug uptake (Thyroid gland [10]): 215 % ID/g
Drug uptake (Kidney [11]): 3.4 % ID/g
Drug uptake (Thyroid gland [12]): 24.1 % ID/g
Drug uptake (Spleen [13]): 4.41 % ID/g
Drug uptake (Kidney [14]): 1.86 % ID/g
Drug uptake (Brain [15]): 0.26 % ID/g
Drug uptake (Brain [16]): 0.62 % ID/g
Drug uptake (Blood [17]): 2.21 % ID/g
Drug uptake (Heart [18]): 9.85 % ID/g
Drug uptake (Brain [19]): 6.22 % ID/g
Drug uptake (Zone of skin [20]): 1.32 % ID/g
Drug uptake (Lung [21]): 1.85 % ID/g
Drug uptake (Blood [22]): 2.88 % ID/g
Drug uptake (Heart [23]): 2.54 % ID/g
Drug uptake (Lung [24]): 3.01 % ID/g
Drug uptake (Spleen [25]): 2.49 % ID/g
Drug uptake (Spleen [26]): 1.27 % ID/g
Drug uptake (Blood [27]): 3.83 % ID/g
Drug uptake (Blood [28]): 4.37 % ID/g
Drug uptake (Muscle tissue [29]): 0.85 % ID/g
Drug uptake (Zone of skin [30]): 2.95 % ID/g
Drug uptake (Lung [31]): 6.85 % ID/g
Drug uptake (Liver [32]): 6.25 % ID/g
Drug uptake (Muscle tissue [33]): 0.44 % ID/g
Drug uptake (Thyroid gland [34]): 38.1 % ID/g
Drug uptake (Thyroid gland [35]): 5.74 % ID/g
Drug uptake (Liver [36]): 26.2 % ID/g
Drug uptake (Heart [37]): 1.75 % ID/g
Drug uptake (Kidney [38]): 9.03 % ID/g
Drug uptake (Liver [39]): 11.5 % ID/g
Drug uptake (Heart [40]): 1.22 % ID/g
Drug uptake (Muscle tissue [41]): 1.11 % ID/g
Drug uptake (Zone of skin [42]): 1.48 % ID/g
Drug uptake (Zone of skin [43]): 2.46 % ID/g
SMILES: CNc1ccc(/C=C/c2cnc(OCCOCCOCCF)c([125I])c2)cc1
